By IC50 is commonly meant the point on the concentration scale where inhibition reaches its midpoint.

In brackets after ≈: the same amount, converted by molar mass. Where two headings read alike, the source gives them in different places. Where only a bound is given, the exact number is not on record here.

For experiment [1], the system named is water-immersion and restraint stress induced gastric ulcer. The experiment can be described thus: Antiulcer test: water-immersion and restraint stress induced gastric ulcer model in rats. Type of experiment: in vivo, Sprague-Dawley strain male rats. The settings on record: for inhibition in vivo at 100 mg/kg / inhibition in vivo at 50 mg/kg / inhibition in vivo at 30 mg/kg: Rattus norvegicus, po, 17 h, read-out: Effect (inhibitory percentage of ulcer formation, judgement); for inhibition in vivo at 100 mg/kg: 100 mg/kg oral; for inhibition of stress-induced ulcer (in words): discussion statement; for Test on anti-ulceration (ulcer caused by stress), Test (1): 100 mg/kg P.O. On the procedure: Sprague-Dawley strain male rats (body weight: 200-250 g) fasted for 24 hours (with free access of water) were used for the test. (1) Antiulcer test Anticular effect of the compound was examined by means of water-immersion and restraint stress induced gastric ulcer model in rats. The ulcer experiment was performed in accordance with the method of Takagi and Okabe referred to hereinafter. Rats were immobilized in a restraint cage. The animals were then immersed vertically to the level of the xiphoid process in water bath (23° C.) for 17 hr and killed by deep ether anesthesia. The stomach of each rat was removed and inflated by injecting 10 ml of 1% formalin to fix the inner and outer layer of gastric wall. Subsequently, the stomach was incised along the greater curveture and the length of ulcers in glandular portion was measured. The sum of the length (mm) of each ulcer was used as an ulcer index. Test compound was suspended in 0.5% methylcellulose solution and was orally administered at a volume of 5 ml/kg to the rat 30 minutes prior to stress loading. To the control group was administered vehicle alone at the same volume. Inhibitory percentage of ulcer formation of the compound was calculated from the following formula. [formula]

For experiment [2], the system named is PAF-induced ulcer. The experiment can be described thus: Test on PAF-induced ulcer. The class given is in vivo, Sprague-Dawley strain male rats. The settings on record: for Test on inhibition of PAF-induced ulcer, Test (3): rat, 100 mg/kg P.O. 30 minutes before PAF, effective = statistically significant vs control. On the procedure:
(§1) Sprague-Dawley strain male rats (body weight: 200-250 g) fasted for 24 hours (with free access of water) were used for the test.
(3) Test on PAF-induced ulcer
Inhibitory effect of the compound on PAF-induced ulcer was examined. PAF-induced ulcer in rat was caused by intravenous administration of 10 μg/kg of PAF. One hour after PAF administration, rat was killed under deep ether anesthesia and stomach was removed. The stomach was inflated and fixed by injecting 10 ml of 1% formalin solution and then cut open along greater curvature. Areas (mm^2) of the ulcerated portions were measured and sum of them was taken as ulcer-index. Test compound was suspended in a 0.5% methylcellulose solution and orally administered at a volume of 5 ml/kg 30 minutes before the administration of PAF. Vehicle alone was administered to control rat at the same volume with test group. With reference to the effect of the compound to inhibit ulceration, results of treated group and those of control group were compared and those which have a statistical significance was judged to be effective.

In experiment [3] the test system is PAF-induced platelet aggregation. The experiment can be described thus: Anti-PAF test in vitro (inhibitory action on PAF-induced platelet aggregation, PRP). The class given is cell-based, rabbit (male Japanese white rabbits). The settings on record: Oryctolagus cuniculus, rabbit PRP. Here is the method: The inhibition of PAF-induced platelet aggregation was examined by using a platelet-rich plasma (PRP) of rabbit according to the method of Mustard et al. [J. F. Mustard et al., J. Lab. Blin. Med., 64, 548 (1964)], which is an improved method of Born [G.V.R. Born, J. Physiol., London, 162, 67 (1962) ]. That is, 80-100 ml of blood per animal was collected from carotoid arteries of conscious male Japanese white rabbits into a polyethylene vessel containing 1/10 the volume of a 3.8% sodium citrate solution. A portion (about 3 ml) of the collected blood was centrifuged at a high speed (11,000 rpm) for 60 seconds to give a platelet-poor plasma (PPP) as supernatant. The remainder of the blood was centrifuged at a low speed (1000 rpm) for 10 minutes to give a platelet-rich plasma (PRP) as supernatant.
The degree of platelet aggregation was determined by nephelometry with an aggregometer (Hematracer, Niko Biosciene Co.) while stirring the PRP at 1000 rpm at 37° C. The degree of platelet aggregation was expressed in terms of the light transmittance (%), the value of PRP being taken as 0% and the value of […]. A portion (0.2 ml) of the PRP was placed into a glass cuvette containing a silicone-coated stirring iron bar, and 2 μl of dimethylsulfoxide was added. After 2 minutes, PAF dissolved in physiological saline containing 0.25% BSA was added to give a final PAF concentration of […], and the maximum aggregation was determined. To measure the inhibitory activity of test compounds on the platelet aggregation induced by PAF, 2 μl of a dimethylsulfoxide solution of each test compound was added in place of dimethylsulfoxide. The inhibitory percentage by the test compound of PAF-induced platelet aggregation was calculated according to the following equation and the value of IC50 was determined. [formula]

Experiment [4] deals with centrally stimulated gastric acid secretion (baclofen). The experiment can be described thus: Central acting inhibitory effect of gastric acid secretion: baclofen-stimulated (central). The settings on record: rat, 30 mg/kg into duodenum 2 hours before stimulant; baclofen 2 mg/kg s.c. The class given is in vivo, Sprague-Dawley strain male rats. Here is the method: as §1
(§2) (2) Test on central acting inhibitory effect of gastric acid secretion
(§3) Whether the antisecretory effect of the compound is based on central action or not was judged according to mode of antisecretory action of the compound to centrally stimulated gastric acid secretion and peripherally stimulated gastric acid secretion. […]
(§4) We determined the site of action (central or peripheral) of the compound by the result from above examination. […]
(§5) Gastric acid was collected every 20 min. by flushing the gastric lumen with 5 ml saline. The acid content of each sample was determined by titration of 0.02 N-NaOH.
(§6) Peripheral stimulation of gastric acid secretion was carried out by subcutaneous administration of 10 mg/kg of histamine or 1 mg/kg of bethanechol. […] Inhibitory percentage of acid secretion of the compound was calculated from the following formula. […]

The subject of experiment [5] is peripherally stimulated gastric acid secretion (histamine). Description: Gastric acid secretion stimulated peripherally by histamine. The class given is in vivo, Sprague-Dawley strain male rats. The settings on record: rat, 30 mg/kg into duodenum 2 hours before stimulant; histamine 10 mg/kg s.c. On the procedure: as §1, §2, §3, §4, §5, §6
In experiment [6] the test system is peripherally stimulated gastric acid secretion (bethanechol). The experiment can be described thus: Gastric acid secretion stimulated peripherally by bethanechol. Type of experiment: in vivo, Sprague-Dawley strain male rats. The settings on record: rat, 30 mg/kg into duodenum 2 hours before stimulant; bethanechol 1 mg/kg s.c. Here is the method:
as §1, §2, §3, §4, §5, §6

Experiment [7] deals with PAF-induced ulcer. The settings on record: cited from earlier work.
Where [8] appears, read: rat, 30 minutes prior to stress.
[9] abbreviates: rat, 50 mg/kg oral, 30 minutes prior to stress.

Consider `CN1C(=O)[C@H](c2ccc(F)cc2)S[C@@H]1c1cccnc1` (relative stereo) [Example 221], for which the inhibition in vivo at 100 mg/kg in experiment [1] (setting [8]) is greater than 80%.
In the case of `CN1C(=O)[C@H](c2ccc(C(F)(F)F)cc2)S[C@@H]1c1cccnc1` (relative stereo) [Example 246], the inhibition in vivo at 100 mg/kg in experiment [1] (setting [8]) was 60 to 80%.
For the molecule `COc1cc([C@H]2CC[C@H](c3cc(OC)c(OC)c(OC)c3)O2)cc(OC)c1OC` (relative stereo) [Example L-652731, trans2,5-bis(3,4,5-trimethoxyphenyl)tetrahydrofuran, reference compound], the “inhibition of stress-induced ulcer (in words)” value in experiment [1] is recorded as “cannot be inhibited”. For the same molecule, the “Test on anti-ulceration (ulcer caused by stress), Test (1)” value (shortened to “Test on anti-ulceration”) in experiment [1] (rat) was “Ineffective”. The “inhibition of PAF-induced ulcer (in words)” value in the experiment on PAF-induced ulcer [2] (discussion statement) was “remarkably inhibited”. Further, in the experiment on PAF-induced ulcer [2], the “Test on inhibition of PAF-induced ulcer, Test (3)” value (shortened to “Test on inhibition … (3)”) is on record as “Effective”. Also, the IC50 in experiment [3] stood at 0.2 µg/mL (≈ 0.494 µM).
With `CN1C(=O)C(c2ccc(Cl)cc2)SC1c1cccnc1` (single isomer, unassigned) [2 (Isomer II), 5-(4-Chlorophenyl)-3-methyl-2-(3-pyridyl)-thiazolidin-4-one], in experiment [1] (setting [9]), the inhibition in vivo at 50 mg/kg was greater than 80%. The “Inhibitory percentage of acid secretion (judgement), stimulant baclofen” value in experiment [4] is listed as “+++ (Not less than 80%.)”. Further, in experiment [5], the “Inhibitory percentage of acid secretion (judgement), stimulant histamine” value was “- (Less than 40%.)”. Also, in experiment [6], the “Inhibitory percentage of acid secretion (judgement), stimulant bethanechol” value was “- (Less than 40%.)”.
As for `CN1C(=O)C(c2ccc(Cl)cc2)[S+]([O-])C1c1cccnc1` (single isomer, unassigned) [Example 30, 5-(4-chlorophenyl)-3-methyl-2-(3-pyridyl)-1-oxo-thiazolidin-4-one], the inhibition in vivo at 50 mg/kg in experiment [1] (setting [9]) lay within 40 to 60%.
Consider `CN1C(=O)C(c2ccc(Cl)cc2)[S+]([O-])C1c1cccnc1` (single isomer, unassigned) [Example 31, 5-(4-chlorophenyl)-3-methyl-2-(3-pyridyl)-1-oxo-thiazolidin-4-one], for which the “Effect (inhibitory percentage of ulcer formation, judgement)” value in experiment [1] (rat, 50 mg/kg oral, 30 minutes prior to stress, 50 mg/kg) was “++ (Not less than 60% and less than 80%.)”.
Take `CN1C(=O)[C@@H](c2ccc(Cl)cc2)S[C@H]1c1cccnc1` (single isomer, unassigned) [Example 33, (+)-cis-5-(4-chlorophenyl)-3-methyl-2-(3-pyridyl)thiazolidin-4-one]: in experiment [1] (rat, 30 mg/kg oral, 30 minutes prior to stress), the inhibition in vivo at 30 mg/kg was greater than 80%.
On to `CN1C(=O)[C@@H](c2ccc(Cl)cc2)S[C@H]1c1cccnc1` (single isomer, unassigned) [Example 34, (-)-cis-5-(4-chlorophenyl)-3-methyl-2-(3-pyridyl)thiazolidin-4-one], for which, in experiment [1] (setting [8]), the inhibition in vivo at 100 mg/kg is 60 to 80%.
Regarding `CN/C(=N/CCSCc1nc[nH]c1C)NC#N` [Cimetidine, reference compound], in experiment [1], the inhibition in vivo at 30 mg/kg fell in the range of 60 to 80% and the “inhibition of stress-induced ulcer (in words)” value was “can be inhibited”. Also, the “Test on anti-ulceration” value in experiment [1] (rat) is reported as “Effective”. Also, in the experiment with PAF-induced ulcer [7] (discussion statement, Table 5 cites Nature 319, 54-56 (1986)), the “inhibition of PAF-induced ulcer (in words)” value is on record as “cannot be inhibited”. For the same molecule, the “Test on inhibition of PAF-induced ulcer” value with PAF-induced ulcer [7] (table head 100 mg/kg P.O., (*) Nature 319, 54-56 (1986)) was “Ineffective”.
Turning to `CN1C(=O)C(c2ccc(Cl)cc2)SC1c1cccnc1` (stereo not drawn) [Example 1, 5-(4-chlorophenyl)-3-methyl-2-(3-pyridyl)thiazolidin-4-one], in experiment [1] (setting [9]), the inhibition in vivo at 50 mg/kg fell in the range of 60 to 80%. For the same molecule, in experiment [1] (rat), the “Test on anti-ulceration” value was “Effective”. In addition, the “Test on inhibition … (3)” value in the experiment with PAF-induced ulcer [2] was “Effective”. Besides, the IC50 in experiment [3] was determined as 5.8 µg/mL (≈ 19 µM).
For `CN1C(=O)C(c2ccc(F)cc2)SC1c1cccnc1` (stereo not drawn) [Example 42], the inhibition in vivo at 50 mg/kg in experiment [1] (setting [9]) was greater than 80%. Also, the “Test on anti-ulceration” value in experiment [1] (rat) was “Effective”. Moreover, the “Test on inhibition … (3)” value in the experiment with PAF-induced ulcer [2] is “Effective”. Also, it took 4 µg/mL (≈ 13.9 µM) to reach half-maximal inhibition in experiment [3] (IC50).
On to `CN1C(=O)C(c2ccc(Cl)cc2)SC1c1ccncc1` (stereo not drawn) [Example 46], for which the inhibition in vivo at 50 mg/kg in experiment [1] (setting [9]) was 60 to 80%.
In the case of `COc1ccc(C2SC(c3cccnc3)N(C)C2=O)cc1` (stereo not drawn) [Example 48], in experiment [1] (setting [9]), the inhibition in vivo at 50 mg/kg lay in the range of 40 to 60%.
Take `CN1C(=O)C(c2ccccc2)SC1c1cccnc1` (stereo not drawn) [Example 52]: in experiment [1] (setting [9]), the inhibition in vivo at 50 mg/kg lay within 40 to 60%.
Consider `O=C1NC(c2cccnc2)SC1c1ccc(Cl)cc1` (stereo not drawn) [Example 178], for which the inhibition in vivo at 100 mg/kg in experiment [1] (setting [8]) lay within 40 to 60%.
For `CN1C(=O)C(c2ccccc2F)SC1c1cccnc1` (stereo not drawn) [Example 198], the inhibition in vivo at 100 mg/kg in experiment [1] (setting [8]) is greater than 80%.
In the case of `CN1C(=O)C(c2ccccc2F)[S+]([O-])C1c1cccnc1` (stereo not drawn) [Example 199], the inhibition in vivo at 100 mg/kg in experiment [1] (setting [8]) is greater than 80%.
Take `COc1ccc(C2NC(=O)C(C)S2)cc1OC` (stereo not drawn) [Mezolidon, 2-(3,4-dimethoxyphenyl)-5-methylthiazolidin-4-one, reference compound]: the inhibition in vivo at 100 mg/kg in experiment [1] (setting [8]) was less than 40%. For the same molecule, in experiment [1] (statement in words), the “effect by the test method employed in the present invention” value is “nearly ineffective”.
